Marks after values point to notes of the source that are not given here.
How the values were obtained:
Format in all cases: in vivo, BALB/C nude mice
human lung cancer A549 = experiment: Human lung cancer A549 transplanted tumors in nude mice; conditions: A549, 400 mg/kg ig × 14; for inhibition in vivo at 400 mg/kg: Mus musculus, po, read-out: Tumor inhibitory rate %
Protocol: In this experiment, a human lung cancer A549 model transplanted into nude mice was selected to study the anti-tumor effect of test compounds. The mice were treated at a dosage of 400 mg/kg by gavage for 14 days, and the tumor inhibition rate against human lung cancer A549 was measured.
Preparation: The compound was prepared as the solution at the desired concentration with distilled water, prior to administration.
Animal strain: BALB/C nude mice (SPF grade), weight: 19-21 g, gender: male. Number of animals in each treatment group: 8; Number of animals in the control group: >12.
Lung cancer A549 tumor blocks with good growth were chosen and cut into uniform small pieces of 3 mm under sterile conditions, and then subcutaneously inoculated into the right armpit of each mouse with a cannula. These mice were divided into 9 groups, 8 mice for each treatment group, while more than 12 mice were included in the control group.
14 days after inoculation, the average volume of the tumor mass was about 100 mm^3. The animals were regrouped based on the size of the tumor, and the mice with tumors that were too large and too small were eliminated. For each group, the average volume of tumors was basically the same, and then the mice were treated with test compounds. The mice in the treatment groups were administered once a day by gavage for 14 successive days, at a dosage of 0.5 mL/20 g body weight; the mice in the control group were given the same volume of physiological saline. From the 14th day of inoculation, the long diameter a (mm) of the tumor, together with the perpendicular short diameter b (mm), was measured using a digital electronic caliper, twice a week. The calculation formula of tumor volume is: TV=ab^2/2, and the formula for calculating the relative tumor volume is RTV=Vt/Vo, wherein Vo denotes the tumor volume measured when the mice were divided into groups (i.e. d1), and Vt is the tumor volume from each measurement.
(§1) The result determination is based on the following formula: […]

[1] = tested on: human ovarian cancer A2780; experiment: Human ovarian cancer A2780 transplanted tumor in nude mice; conditions: A2780, 200 mg/kg ip × 14
Protocol: A human ovarian cancer A2780 model transplanted into nude mice was used in the experiment to investigate the anti-tumor effect of test compounds.
(§2) Preparation: The compound was prepared as the injection at the desired concentration with sterile normal saline, prior to administration.
(§3) Animal strain: BALB/C nude mice (SPF grade), weight: 19-21 g, gender: male.
(§4) Number of animals in each treatment group: 8; number of animals in the control group: >12.
The tumor blocks of human ovarian cancer A2780 growing well were cut into uniform small pieces of 3 mm under sterile conditions, and then subcutaneously inoculated into the right armpit of each mouse with a cannula. The mice were divided into 9 groups, 8 mice for each treatment group, while >12 mice were included in the control group.
(§5) 14 days after inoculation, the average volume of the tumor block was about 100 mm^3. The animals were regrouped based on the size of the tumor, and the animals with tumors that were too large and too small were sifted out. For each group, the average volume of tumors was basically the same, and then the mice were initially treated with test compounds. The mice were intraperitoneally injected once a day for 14 days, at a dosage of 0.2 mL/20 g body weight; the mice in the control group were given the same volume of sterile normal saline. From the 14th day of inoculation, the long diameter a (mm) of the tumor, together with the perpendicular short diameter b (mm), was measured using a digital electronic caliper, twice a week. The calculation formula of tumor volume is: TV=ab^2/2, and the formula for calculating the relative tumor volume is RTV=Vt/Vo, wherein Vo denotes the tumor volume measured when the mice were divided into groups (i.e. d1), and Vt is the tumor volume from each measurement.
as §1

[2] = tested on: human prostate cell LNCaP; experiment: Human prostate cell LNCaP transplanted tumor in nude mice
Protocol: A human prostate cell LNCaP model transplanted into nude mice was used in the experiment to investigate the anti-tumor effect of test compounds.
as §2, §3, §4
The tumor blocks of human prostate cell LNCaP with good growth were cut into uniform small pieces of 3 mm under sterile conditions, and then subcutaneously inoculated into the right armpit of each mouse with a cannula. The mice were divided into 9 groups, 8 mice for each treatment group, while >12 mice were included in the control group,
as §5, with “sifted out,” for “sifted out.”, “volume is: RTV=Vt/[…],” for “volume is RTV=Vt/Vo,”, “Vt denotes” for “Vt is”
as §1

[3] = tested on: human renal cell carcinoma AGHN; experiment: Human renal cell carcinoma AGHN transplanted tumor in nude mice
Protocol: A human renal cell carcinoma AGHN model transplanted into nude mice was used in the experiment to investigate the anti-tumor effect of test compounds. […] AGHN was measured.
as §2
Animal strain: BALB/C, nude mice (SPF grade), weight: 19-21 g, gender: male. Number of animals in each treatment group: 8; number of animals in the control group: >12.
The tumor blocks of human renal cell carcinoma AGHN with good growth were cut into uniform small pieces of 3 mm under sterile conditions, and then subcutaneously inoculated into the right armpit of each mouse with a cannula. The mice were divided into 9 groups, 8 mice for each treatment group, while >12 mice were included in the control group.
as §5, with “about 100 mm^3, The animals” for “about 100 mm^3. The animals”, “tumor volume is: RTV=Vt/Vo, wherein” for “tumor volume is RTV=Vt/Vo, wherein”, “and Vt denotes the tumor” for “and Vt is the tumor”
as §1

[4] = 200 mg/kg ip × 14, listed as compound 4, 200 mg/kg

Compound: COc1ccc(/C=C(/C(=O)O)c2cc(OC)c(OC)c(OC)c2)c(O)c1O [Compound 1, (E)-3-(2,3-dihydroxy-4-methoxyphenyl)-2-(3,4,5-trimethoxylphenyl)acrylic acid]
- RTV (d 22) (human lung cancer A549): 4.27 ± 0.48
- inhibition in vivo at 400 mg/kg (human lung cancer A549): 63.6%
- RTV (d 18) [1]: 5.63 ± 0.72
- Tumor inhibitory rate % [1]: 45.39^## %
- RTV (d 18) ([2]; 200 mg/kg ip × 14): 4.92 ± 0.82
- Tumor inhibitory rate % ([2]; 200 mg/kg ip × 14): 56.27^## %
- RTV (d 18) ([3]; 200 mg/kg ip × 14): 6.31 ± 0.91
- Tumor inhibitory rate % ([3]; 200 mg/kg ip × 14): 54.24^## %

Compound: COc1cc(/C=C(/C(=O)O)c2cc(OC)c(OC)c(OC)c2)cc(OC)c1 [Compound 3, (E)-3-(3,5-dimethoxyphenyl)-2-(3,4,5-trimethoxyphenyl)acrylic acid]
- RTV (d 22) (human lung cancer A549): 4.52 ± 0.76
- inhibition in vivo at 400 mg/kg (human lung cancer A549): 61.5%
- RTV (d 18) ([2]; 200 mg/kg ip × 14): 4.77 ± 0.71
- Tumor inhibitory rate % ([2]; 200 mg/kg ip × 14): 60.87^## %
- RTV (d 18) ([3]; 200 mg/kg ip × 14): 5.47 ± 0.82
- Tumor inhibitory rate % ([3]; 200 mg/kg ip × 14): 60.33^# %

Compound: COc1ccc(/C=C(/C(=O)O)c2cc(OC)c(OC)c(OC)c2)cc1F [Compound 4, (E)-3-(3-fluoro-4-methoxyphenyl)-2-(3,4,5-trimethoxyphenyl)acrylic acid]
- RTV (d 22) (human lung cancer A549): 5.23 ± 1.43
- inhibition in vivo at 400 mg/kg (human lung cancer A549): 55.5%
- RTV (d 18) [1]: 4.51 ± 0.67
- Tumor inhibitory rate % [1]: 56.26^## %
- RTV (d 18) ([2]; 200 mg/kg ip × 14): 3.73 ± 0.60
- Tumor inhibitory rate % ([2]; 200 mg/kg ip × 14, 200 mg/kg): 69.40%
- Tumor inhibitory rate % [2, 4]: best inhibitory effect on prostate cancer
- RTV (d 18) ([3]; 200 mg/kg ip × 14): 4.31 ± 0.58
- Tumor inhibitory rate % ([3]; 200 mg/kg ip × 14, 200 mg/kg): 68.75%
- Tumor inhibitory rate % [3, 4]: best inhibitory effect on renal cell carcinoma

Compound: COc1ccc(/C=C(/C(=O)O)c2cc(OC)c(OC)c(OC)c2)cc1O [Compound 6, (E)-3-(3-hydroxy-4-methoxyphenyl)-2-(3,4,5-trimethoxyphenyl)acrylic acid]
- RTV (d 22) (human lung cancer A549): 2.51 ± 0.94
- Tumor inhibitory rate % (human lung cancer A549): best inhibitory effect on lung cancer
- inhibition in vivo at 400 mg/kg (human lung cancer A549): 78.6%
- RTV (d 18) [1]: 3.58 ± 0.49
- Tumor inhibitory rate % [1]: 65.28%
- Tumor inhibitory rate % ([1]; listed as compound 6): best inhibitory effect on ovarian cancer
- RTV (d 18) ([2]; 200 mg/kg ip × 14): 4.27 ± 0.92
- Tumor inhibitory rate % ([2]; 200 mg/kg ip × 14): 64.97^# %
- RTV (d 18) ([3]; 200 mg/kg ip × 14): 6.53 ± 0.85
- Tumor inhibitory rate % ([3]; 200 mg/kg ip × 14): 52.64^## %

Compound: COc1cc(/C(=C\c2cc(O)c(OC)c(F)c2)C(=O)O)cc(OC)c1OC [Compound 8, (E)-3-(5-fluoro-3-hydroxy-4-methoxyphenyl)-2-(3,4,5-trimethoxyphenyl)acrylic acid]
- RTV (d 22) (human lung cancer A549): 4.22 ± 0.75
- inhibition in vivo at 400 mg/kg (human lung cancer A549): 64.1%
- RTV (d 18) [1]: 5.21 ± 0.47
- Tumor inhibitory rate % [1]: 49.47^## %
- RTV (d 18) ([2]; 200 mg/kg ip × 14): 6.72 ± 0.85
- Tumor inhibitory rate % ([2]; 200 mg/kg ip × 14): 44.87^## %
- RTV (d 18) ([3]; 200 mg/kg ip × 14): 6.22 ± 0.63
- Tumor inhibitory rate % ([3]; 200 mg/kg ip × 14): 54.89^## %

Compound: COc1ccc(/C=C(/C(=O)O)c2cc(OC)c(OC)c(OC)c2)c(F)c1O [Compound 9, (E)-3-(2-fluoro-3-hydroxy-4-methoxyphenyl)-2-(3,4,5-trimethoxyphenyl)acrylic acid]
- RTV (d 18) [1]: 4.37 ± 0.62
- Tumor inhibitory rate % [1]: 57.61^# %
- RTV (d 18) ([3]; 200 mg/kg ip × 14): 5.12 ± 0.77
- Tumor inhibitory rate % ([3]; 200 mg/kg ip × 14): 62.87^# %

Compound: COc1cc(/C=C(/C(=O)[O-])c2cc(OC)c(OC)c(OC)c2)cc(OC)c1F.[K+] [Compound 10]
- RTV (d 18) [1]: 4.26 ± 0.73
- Tumor inhibitory rate % [1]: 58.68^# %
- RTV (d 18) ([2]; 200 mg/kg ip × 14): 4.55 ± 0.81
- Tumor inhibitory rate % ([2]; 200 mg/kg ip × 14): 62.67^# %

Compound: COc1cc(/C(=C\c2cc(O)c(OC)c(O)c2)C(=O)O)cc(OC)c1OC [Compound 11, (E)-3-(3,5-dihydroxy-4-methoxyphenyl)-2-(3,4,5-trimethoxyphenyl)acrylic acid]
- RTV (d 22) (human lung cancer A549): 4.07 ± 0.51
- inhibition in vivo at 400 mg/kg (human lung cancer A549): 65.4%
